# How the values were obtained:
# Assay in all cases: viability relative to DMSO control (fraction); higher = less drug effect (more viable cells)
# Details in all cases: 48 h
# [1] = tested on: primary AML patient cells (S002)
# How it was run: (§1)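 Primary mononuclear tumour cells (Ficoll-isolated from blood or bone marrow, or processed lymph node; fresh or cryopreserved) were plated at 4 × 10^4 cells per well in 384-well plates with pre-plated compounds at five concentrations, one well each. Medium was RPMI-1640 with penicillin/streptomycin, L-glutamine and human serum, at 37 °C and 5% CO2 for 48 h. Viability was read as CellTiter-Glo luminescence relative to the median of 16 inner DMSO wells.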
# [2] = tested on: primary AML patient cells (S009)
# How it was run: as §1
# [3] = tested on: primary AML patient cells (S017)
# How it was run: as §1
# [4] = tested on: primary AML patient cells (S021)
# How it was run: as §1
# [5] = tested on: primary AML patient cells (S037)
# How it was run: as §1
# [6] = tested on: primary AML patient cells (S055)
# How it was run: as §1
# [7] = tested on: primary AML patient cells (S060)
# How it was run: as §1
# [8] = tested on: primary AML patient cells (S071)
# How it was run: as §1
# [9] = tested on: primary AML patient cells (S072)
# How it was run: as §1
# [10] = tested on: primary AML patient cells (S081)
# How it was run: as §1
# [11] = tested on: primary AML patient cells (S089)
# How it was run: as §1
# [12] = tested on: primary AML patient cells (S091)
# How it was run: as §1
# [13] = tested on: primary B-PLL patient cells (S016)
# How it was run: as §1
# [14] = tested on: primary BL patient cells (S005)
# How it was run: as §1
# [15] = tested on: primary CLL patient cells (S043)
# How it was run: as §1
# [16] = tested on: primary DLBCL patient cells (S082)
# How it was run: as §1
# [17] = tested on: primary MCL patient cells (S053)
# How it was run: as §1
# [18] = tested on: primary MCL patient cells (S068)
# How it was run: as §1
# [19] = tested on: primary T-PLL patient cells (S008)
# How it was run: as §1
smiles,measurement,setting,value
O=C(Nc1nc2ccccc2n1CCN1CCOCC1)c1cccc([N+](=O)[O-])c1 [IRAK-1/4 INHIBITOR I],viability,[1]; 0.016 µM,0.955
same,viability,[1]; 0.08 µM,1.05
same,viability,[1]; 0.4 µM,0.901
same,viability,[1]; 2 µM,0.953
same,viability,[1]; 10 µM,1.03
same,viability,[2]; 0.016 µM,1.01
same,viability,[2]; 0.08 µM,0.993
same,viability,[2]; 0.4 µM,0.965
same,viability,[2]; 2 µM,0.933
same,viability,[2]; 10 µM,0.98
same,viability,[3]; 0.016 µM,0.904
same,viability,[3]; 0.08 µM,0.962
same,viability,[3]; 0.4 µM,0.889
same,viability,[3]; 2 µM,0.932
same,viability,[3]; 10 µM,0.937
same,viability,[4]; 0.016 µM,0.924
same,viability,[4]; 0.08 µM,0.954
same,viability,[4]; 0.4 µM,0.907
same,viability,[4]; 2 µM,0.735
same,viability,[4]; 10 µM,0.819
same,viability,[5]; 0.016 µM,0.878
same,viability,[5]; 0.08 µM,0.933
same,viability,[5]; 0.4 µM,0.895
same,viability,[5]; 2 µM,0.885
same,viability,[5]; 10 µM,1.02
same,viability,[6]; 0.016 µM,0.985
same,viability,[6]; 0.08 µM,0.994
same,viability,[6]; 0.4 µM,1.01
same,viability,[6]; 2 µM,1.02
same,viability,[6]; 10 µM,0.958
same,viability,[7]; 0.016 µM,0.973
same,viability,[7]; 0.08 µM,1
same,viability,[7]; 0.4 µM,0.974
same,viability,[7]; 2 µM,1
same,viability,[7]; 10 µM,1.02
same,viability,[8]; 0.016 µM,0.925
same,viability,[8]; 0.08 µM,0.918
same,viability,[8]; 0.4 µM,0.815
same,viability,[8]; 2 µM,0.783
same,viability,[8]; 10 µM,0.636
same,viability,[9]; 0.016 µM,0.921
same,viability,[9]; 0.08 µM,0.985
same,viability,[9]; 0.4 µM,0.909
same,viability,[9]; 2 µM,0.869
same,viability,[9]; 10 µM,0.916
same,viability,[10]; 0.016 µM,0.864
same,viability,[10]; 0.08 µM,0.93
same,viability,[10]; 0.4 µM,0.907
same,viability,[10]; 2 µM,0.93
same,viability,[10]; 10 µM,0.915
same,viability,[11]; 0.016 µM,0.772
same,viability,[11]; 0.08 µM,0.973
same,viability,[11]; 0.4 µM,0.849
same,viability,[11]; 2 µM,1
same,viability,[11]; 10 µM,0.872
same,viability,[12]; 0.016 µM,0.911
same,viability,[12]; 0.08 µM,0.936
same,viability,[12]; 0.4 µM,0.951
same,viability,[12]; 2 µM,0.905
same,viability,[12]; 10 µM,0.798
same,viability,[13]; 0.016 µM,0.968
same,viability,[13]; 0.08 µM,1.05
same,viability,[13]; 0.4 µM,0.969
same,viability,[13]; 2 µM,0.937
same,viability,[13]; 10 µM,1.04
same,viability,[14]; 0.016 µM,1.02
same,viability,[14]; 0.08 µM,1.09
same,viability,[14]; 0.4 µM,1.04
same,viability,[14]; 2 µM,0.984
same,viability,[14]; 10 µM,1.09
same,viability,[15]; 0.016 µM,0.825
same,viability,[15]; 0.08 µM,0.885
same,viability,[15]; 0.4 µM,0.838
same,viability,[15]; 2 µM,0.845
same,viability,[15]; 10 µM,0.861
same,viability,[16]; 0.016 µM,0.863
same,viability,[16]; 0.08 µM,0.932
same,viability,[16]; 0.4 µM,0.926
same,viability,[16]; 2 µM,1.02
same,viability,[16]; 10 µM,1.07
same,viability,[17]; 0.016 µM,0.823
same,viability,[17]; 0.08 µM,0.939
same,viability,[17]; 0.4 µM,0.915
same,viability,[17]; 2 µM,0.977
same,viability,[17]; 10 µM,1.09
same,viability,[18]; 0.016 µM,0.977
same,viability,[18]; 0.08 µM,0.997
same,viability,[18]; 0.4 µM,1.13
same,viability,[18]; 2 µM,1.27
same,viability,[18]; 10 µM,1.41
same,viability,[19]; 0.016 µM,0.933
same,viability,[19]; 0.08 µM,1
same,viability,[19]; 0.4 µM,0.935
same,viability,[19]; 2 µM,0.954
same,viability,[19]; 10 µM,1.03
Nc1ccc2ncnc(NCCc3ccc(Oc4ccccc4)cc3)c2c1 [EVP4593],viability,[1]; 0.008 µM,0.922
same,viability,[1]; 0.04 µM,0.857
same,viability,[1]; 0.2 µM,0.753
same,viability,[1]; 1 µM,0.668
same,viability,[1]; 5 µM,0.726
same,viability,[2]; 0.008 µM,0.792
same,viability,[2]; 0.04 µM,0.705
same,viability,[2]; 0.2 µM,0.749
same,viability,[2]; 1 µM,0.636
same,viability,[2]; 5 µM,0.691
same,viability,[3]; 0.008 µM,0.889
same,viability,[3]; 0.04 µM,0.933
same,viability,[3]; 0.2 µM,0.875
same,viability,[3]; 1 µM,0.901
same,viability,[3]; 5 µM,0.795
same,viability,[4]; 0.008 µM,0.769
same,viability,[4]; 0.04 µM,0.659
same,viability,[4]; 0.2 µM,0.572
same,viability,[4]; 1 µM,0.437
same,viability,[4]; 5 µM,0.439
same,viability,[5]; 0.008 µM,0.943
same,viability,[5]; 0.04 µM,0.813
same,viability,[5]; 0.2 µM,0.859
same,viability,[5]; 1 µM,1.08
same,viability,[5]; 5 µM,1.07
same,viability,[6]; 0.008 µM,0.913
same,viability,[6]; 0.04 µM,0.853
same,viability,[6]; 0.2 µM,0.791
same,viability,[6]; 1 µM,0.828
same,viability,[6]; 5 µM,0.828
same,viability,[7]; 0.008 µM,1.01
same,viability,[7]; 0.04 µM,1
same,viability,[7]; 0.2 µM,0.97
same,viability,[7]; 1 µM,0.961
same,viability,[7]; 5 µM,0.966
same,viability,[8]; 0.008 µM,0.768
same,viability,[8]; 0.04 µM,0.684
same,viability,[8]; 0.2 µM,0.351
same,viability,[8]; 1 µM,0.158
same,viability,[8]; 5 µM,0.121
same,viability,[9]; 0.008 µM,0.844
same,viability,[9]; 0.04 µM,0.823
same,viability,[9]; 0.2 µM,0.772
same,viability,[9]; 1 µM,0.637
same,viability,[9]; 5 µM,0.652
same,viability,[10]; 0.008 µM,0.859
same,viability,[10]; 0.04 µM,0.821
same,viability,[10]; 0.2 µM,0.799
same,viability,[10]; 1 µM,0.784
same,viability,[10]; 5 µM,0.78
same,viability,[11]; 0.008 µM,0.701
same,viability,[11]; 0.04 µM,0.737
same,viability,[11]; 0.2 µM,0.629
same,viability,[11]; 1 µM,0.44
same,viability,[11]; 5 µM,0.215
same,viability,[12]; 0.008 µM,0.891
same,viability,[12]; 0.04 µM,0.837
same,viability,[12]; 0.2 µM,0.869
same,viability,[12]; 1 µM,0.624
same,viability,[12]; 5 µM,0.532
same,viability,[13]; 0.008 µM,0.929
same,viability,[13]; 0.04 µM,0.874
same,viability,[13]; 0.2 µM,0.8
same,viability,[13]; 1 µM,0.716
same,viability,[13]; 5 µM,0.713
same,viability,[14]; 0.008 µM,1.01
same,viability,[14]; 0.04 µM,0.939
same,viability,[14]; 0.2 µM,0.811
same,viability,[14]; 1 µM,0.73
same,viability,[14]; 5 µM,0.716
same,viability,[15]; 0.008 µM,0.794
same,viability,[15]; 0.04 µM,0.794
same,viability,[15]; 0.2 µM,0.774
same,viability,[15]; 1 µM,0.726
same,viability,[15]; 5 µM,0.695
same,viability,[16]; 0.008 µM,0.83
same,viability,[16]; 0.04 µM,0.736
same,viability,[16]; 0.2 µM,0.588
same,viability,[16]; 1 µM,0.462
same,viability,[16]; 5 µM,0.452
same,viability,[17]; 0.008 µM,0.876
same,viability,[17]; 0.04 µM,0.875
same,viability,[17]; 0.2 µM,0.821
same,viability,[17]; 1 µM,0.672
same,viability,[17]; 5 µM,0.642
same,viability,[18]; 0.008 µM,0.844
same,viability,[18]; 0.04 µM,0.766
same,viability,[18]; 0.2 µM,0.741
same,viability,[18]; 1 µM,0.683
same,viability,[18]; 5 µM,0.676
same,viability,[19]; 0.008 µM,0.997
same,viability,[19]; 0.04 µM,0.971
same,viability,[19]; 0.2 µM,0.894
same,viability,[19]; 1 µM,0.861
same,viability,[19]; 5 µM,0.868

# Reference: the supplement of paper PMC10733146
